Experiments:
[1] = test system: caspase 8; assay: Caspase 8 immunoblot in SW1 cells; assay type: cell-based, mouse; settings: 0.5 μM AIGA, 0.5 or 1.0 μM CSL, 24 hours
Description: Mitochondrial activity and apoptosis. Cells were exposed to the chemicals for 12-48 hours as indicated in Results. To measure changes in mitochondrial activity reflective of general cell viability, the ATPLITE ATP detection assay was used according to the manufacturer's recommendations (Perkin Elmer). Apoptosis analysis was performed by flow cytometry of PI-stained cells. The percentage of cells to the left of the diploid G0/1 peak, characteristic of hypodiploid cells that have partially lost DNA, was calculated as percentage of apoptotic cells (Bhoumik et al., PNAS 101:4222-7, 2004). Analysis of changes in Caspase 8 expression pattern was performed using immunoblot analysis.
Immunoblot analysis. Proteins prepared from cells at the indicated time points using RIPA buffer and 75 μg were separated on SDS-PAGE followed by immunoblot analysis using the antibodies indicated. […]
The finding that CSL and AIGA reduced cell viability in melanoma was made using the ATPLITE assay, which monitors the degree of mitochondrial ATP release, a marker for mitochondrial activity. […] Immunoblot analysis using caspase 8 antibody monitored full length and cleaved forms (active) of caspase 8. β-actin was used as a loading control.

[2] = test system: JNK phosphorylation on residues 183/185; assay: Western blot for JNK phosphorylation in SW1 cells; assay type: cell-based, mouse; settings: 0.5, 1.0, 2.0 μM
Description: Immunoblot analysis. Proteins prepared from cells at the indicated time points using RIPA buffer and 75 μg were separated on SDS-PAGE followed by immunoblot analysis using the antibodies indicated. Antibodies used were as follows: anti-JNK (Santa Cruz), phospho-JNK (Promega Corp.; Madison, Wis.), phospho c-Jun (Cell Signaling Technology, Inc.; Danvers, Mass.), c-Jun (Santa Cruz Biotechnology, Inc.; Santa Cruz, Calif.) and Caspase 8 (BD Biosciences; San Jose, Calif.).
Thus, the two compounds were evaluated to determine if they require JNK activity for their effects on melanoma cells. To this end, the ability of AIGA or CSL to affect the viability of melanoma cells in the presence of a JNK inhibitor was tested. SW1 cells, with or without a 30-minute pretreatment with the JNK inhibitor SP600125 (10 μM), were contacted with AIGA or CSL at the indicated concentrations for 20 h. ATP levels were used to measure the cell viability using the ATPLITE kit. […] To assess whether these compounds affect JNK activity, changes in JNK phosphorylation on residues 183/185, which are required for its kinase activity, were monitored. […] Total level of JNK was analyzed in parallel. […]

SMILES	cleaved (active) forms of caspase 8 [1]	phosphorylation of JNK on residues 183/185 [2]
CC(=O)Oc1c2c(c(CC=C(C)C)c3c1C(=O)C1=C[C@@H]4CC5C(C)(C)OC(C/C=C(\C)C(=O)O)(C4=O)[C@@]15O3)OC(C)(CCC=C(C)C)C=C2 (stereo partly shown) [AIGA, Acetyl isogambogic acid]	increase in intensity of the cleaved forms caspase 8	induced phosphorylation of JNK
CC1=C(O)C(=O)C=C2C1=CC=C1[C@@]2(C)CC[C@@]2(C)[C@@H]3C[C@](C)(C(=O)O)CC[C@]3(C)CC[C@]12C [Celastrol]	increase in intensity of the cleaved forms caspase 8	induced phosphorylation of JNK

Source: patent publication US7888355B2, “Compositions and methods for inhibiting growth and metastasis of melanoma” (Burnham Institute for Medical Research, priority 2007, dated 2011)
